According to patent publication US10239883B2, “4-imidazopyridazin-1-yl-benzamides as BTK inhibitors” (Merck Sharp & Dohme B.V., priority 2011, dated 2019):

Biological target: Btk enzyme (His-Btk) (Homo sapiens (Human), UniProt Q06187)
Experiment: Btk enzyme activity, IMAP fluorescence polarization assay
Details: 60 min pre-incubation, 5 μM ATP, bin bound in nM

Chain of Btk enzyme (His-Btk) (Q06187 whole entry): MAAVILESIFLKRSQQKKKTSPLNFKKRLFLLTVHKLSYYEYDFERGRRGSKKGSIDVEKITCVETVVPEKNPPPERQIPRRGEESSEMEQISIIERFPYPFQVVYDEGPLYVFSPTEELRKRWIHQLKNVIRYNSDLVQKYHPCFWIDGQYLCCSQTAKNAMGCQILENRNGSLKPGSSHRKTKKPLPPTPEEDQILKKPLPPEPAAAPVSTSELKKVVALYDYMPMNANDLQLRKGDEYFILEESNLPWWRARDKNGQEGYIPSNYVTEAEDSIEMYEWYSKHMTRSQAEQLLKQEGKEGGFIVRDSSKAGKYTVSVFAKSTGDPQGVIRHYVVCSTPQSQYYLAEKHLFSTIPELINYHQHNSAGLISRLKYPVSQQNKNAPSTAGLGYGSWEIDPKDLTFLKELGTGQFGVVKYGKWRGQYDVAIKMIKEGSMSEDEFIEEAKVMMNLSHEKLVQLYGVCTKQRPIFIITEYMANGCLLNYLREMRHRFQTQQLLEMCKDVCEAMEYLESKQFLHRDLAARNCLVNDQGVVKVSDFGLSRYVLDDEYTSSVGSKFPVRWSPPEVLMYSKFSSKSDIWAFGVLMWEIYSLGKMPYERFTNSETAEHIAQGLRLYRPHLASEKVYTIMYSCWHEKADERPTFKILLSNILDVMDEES

| Compound | EC50 Btk activity values [nM] |
| --- | --- |
| COc1cc(-c2nc([C@@H]3CCCN3C(=O)c3ccnc(Cl)n3)n3ccnc(N)c23)ccc1C(=O)Nc1ccccn1 [Example 83, (S)-4-(8-amino-3-(1-(2-chloropyrimidine-4-carbonyl)pyrrolidin-2-yl)imidazo[1,5-a]pyrazin-1-yl)-2-methoxy-N-(pyridin-2-yl)benzamide] | <100 |
| Nc1nccn2c([C@@H]3CCCN3C(=O)c3ccnc(Cl)n3)nc(-c3ccc(C(=O)Nc4ccccn4)c(F)c3)c12 [Example 84, (S)-4-(8-amino-3-(1-(2-chloropyrimidine-4-carbonyl)pyrrolidin-2-yl)imidazo[1,5-a]pyrazin-1-yl)-2-fluoro-N-(pyridin-2-yl)benzamide] | <100 |
| CC#CC(=O)N1CCCC[C@H]1c1nc(-c2ccc(C(=O)Nc3nccc(C)n3)cc2)c2c(N)nccn12 [Example 89, (S)-4-(8-amino-3-(1-but-2-ynoylpiperidin-2-yl)imidazo[1,5-a]pyrazin-1-yl)-N-(4-methylpyrimidin-2-yl)benzamide] | <100 |
| COC/C=C/C(=O)NCc1nc(-c2ccc(C(=O)Nc3ccccn3)cc2)c2c(N)nccn12 [Example 95, (E)-4-(8-amino-3-((4-methoxybut-2-enamido)methyl)imidazo[1,5-a]pyrazin-1-yl)-N-(pyridin-2-yl)benzamide] | <100 |
| CC#CC(=O)N1CCC[C@H]1c1nc(-c2ccc(C(=O)Nc3cc(N4CCCC4)ccn3)cc2)c2c(N)nccn12 [Example 96, (S)-4-(8-amino-3-(1-but-2-ynoylpyrrolidin-2-yl)imidazo[1,5-a]pyrazin-1-yl)-N-(4-(pyrrolidin-1-yl)pyridin-2-yl)benzamide] | <100 |
| COC/C=C/C(=O)N1CCCCCC1c1nc(-c2ccc(C(=O)Nc3ccccn3)cc2)c2c(N)nccn12 (centres unmarked) [Example 97, (E)-4-(8-amino-3-(1-(4-methoxybut-2-enoyl)azepan-2-yl)imidazo[1,5-a]pyrazin-1-yl)-N-(pyridin-2-yl)benzamide] | <100 |
| COC/C=C/C(=O)N1CCC[C@H]1c1nc(-c2ccc(C(=O)Nc3cc(C#N)ccn3)cc2)c2c(N)nccn12 [Example 98, (S,E)-4-(8-amino-3-(1-(4-methoxybut-2-enoyl)pyrrolidin-2-yl)imidazo[1,5-a]pyrazin-1-yl)-N-(4-cyanopyridin-2-yl)benzamide] | <100 |
| CC#CC(=O)N1CCC[C@H]1c1nc(-c2ccc(C(=O)Nc3ccccn3)c(OC)c2)c2c(N)nccn12 [Example 99, (S)-4-(8-amino-3-(1-but-2-ynoylpyrrolidin-2-yl)imidazo[1,5-a]pyrazin-1-yl)-2-methoxy-N-(pyridin-2-yl)benzamide] | <100 |
| COC/C=C/C(=O)N1CCC[C@H]1c1nc(-c2ccc(C(=O)Nc3ccccn3)c(OC)c2)c2c(N)nccn12 [Example 103, (S,E)-4-(8-amino-3-(1-(4-methoxybut-2-enoyl)pyrrolidin-2-yl)imidazo[1,5-a]pyrazin-1-yl)-2-methoxy-N-(pyridin-2-yl)benzamide] | <100 |
| C[C@H](NC(=O)c1ccnc(Cl)n1)c1nc(-c2ccc(C(=O)Nc3ccccn3)cc2)c2c(N)nccn12 [Example 105, (S)-N-(1-(8-amino-1-(4-(pyridin-2-ylcarbamoyl)phenyl)imidazo[1,5-a]pyrazin-3-yl)ethyl)-2-chloropyrimidine-4-carboxamide] | <100 |
| CC#CC(=O)N1CCC[C@H]1c1nc(-c2ccc(C(=O)Nc3cc(F)ccn3)cc2)c2c(N)nccn12 [Example 106, (S)-4-(8-amino-3-(1-but-2-ynoylpyrrolidin-2-yl)imidazo[1,5-a]pyrazin-1-yl)-N-(4-fluoropyridin-2-yl)benzamide] | <100 |
| CC#CC(=O)NCc1nc(-c2ccc(C(=O)Nc3ccccn3)cc2)c2c(N)nccn12 [Example 112, 4-(8-amino-3-(but-2-ynamidomethyl)imidazo[1,5-a]pyrazin-1-yl)-N-(pyridin-2-yl)benzamide] | <100 |
| CC#CC(=O)N(C)[C@@H](C)c1nc(-c2ccc(C(=O)Nc3cc(CCC)ccn3)cc2)c2c(N)nccn12 [Example 113, (S)-4-(8-amino-3-(1-(N-methylbut-2-ynamido)ethyl)imidazo[1,5-a]pyrazin-1-yl)-N-(4-propylpyridin-2-yl)benzamide] | <100 |
| CCCc1ccnc(NC(=O)c2ccc(-c3nc([C@@H]4CCCCN4C(=O)/C=C/COC)n4ccnc(N)c34)cc2F)c1 [Example 114, (S,E)-4-(8-amino-3-(1-(4-methoxybut-2-enoyl)piperidin-2-yl)imidazo[1,5-a]pyrazin-1-yl)-2-fluoro-N-(4-propylpyridin-2-yl)benzamide] | <100 |
| Nc1nccn2c([C@@H]3CCCN3C(=O)c3ccnc(Cl)n3)nc(-c3ccc(C(=O)Nc4cc(C(F)(F)F)ccn4)cc3)c12 [Example 119, (S)-4-(8-amino-3-(1-(2-chloropyrimidine-4-carbonyl)pyrrolidin-2-yl)imidazo[1,5-a]pyrazin-1-yl)-N-(4-(trifluoromethyl)pyridin-2-yl)benzamide] | <100 |

Same assay, conditions: 60 min pre-incubation, 5 μM ATP, bin bound in μM

| Compound | EC50 Btk activity values [nM] |
| --- | --- |
| COC/C=C/C(=O)N1CCCC[C@H]1c1nc(-c2ccc(C(=O)Nc3ccccn3)cc2C)c2c(N)nccn12 [Example 85, 4-(8-amino-3-((S)-1-((E)-4-methoxybut-2-enoyl)piperidin-2-yl)imidazo[1,5-a]pyrazin-1-yl)-3-methyl-N-(pyridin-2-yl)benzamide] | <1000 |
| COC/C=C/C(=O)N1CCCC[C@H]1c1nc(-c2ccc(C(=O)Nc3ccncn3)cc2)c2c(N)nccn12 [Example 86, (S,E)-4-(8-amino-3-(1-(4-methoxybut-2-enoyl)piperidin-2-yl)imidazo[1,5-a]pyrazin-1-yl)-N-(pyrimidin-4-yl)benzamide] | <1000 |
| CCCc1ccnc(NC(=O)c2ccc(-c3nc([C@@H]4CCCN4C(=O)/C=C/COC)n4ccnc(N)c34)c(C)c2)c1 [Example 87, 4-(8-amino-3-((S)-1-((E)-4-methoxybut-2-enoyl)pyrrolidin-2-yl)imidazo[1,5-a]pyrazin-1-yl)-3-methyl-N-(4-propylpyridin-2-yl)benzamide] | <1000 |
| COC/C=C/C(=O)N1CCCC[C@H]1c1nc(-c2ccc(C(=O)Nc3nccc(C)n3)cc2)c2c(N)nccn12 [Example 88, (S,E)-4-(8-amino-3-(1-(4-methoxybut-2-enoyl)piperidin-2-yl)imidazo[1,5-a]pyrazin-1-yl)-N-(4-methylpyrimidin-2-yl)benzamide] | <1000 |
| Nc1nccn2c([C@@H]3CCCCN3C(=O)c3ccnc(Cl)n3)nc(-c3ccc(C(=O)Nc4ncccn4)cc3)c12 [Example 90, (S)-4-(8-amino-3-(1-(2-chloropyrimidine-4-carbonyl)piperidin-2-yl)imidazo[1,5-a]pyrazin-1-yl)-N-(pyrimidin-2-yl)benzamide] | <1000 |
| C=C(C(=O)N1CCC[C@H]1c1nc(-c2ccc(C(=O)Nc3ccccn3)cc2)c2c(N)nccn12)C(F)(F)F [Example 92, (S)-4-(8-amino-3-(1-(2-(trifluoromethyl)acryloyl)pyrrolidin-2-yl)imidazo[1,5-a]pyrazin-1-yl)-N-(pyridin-2-yl)benzamide] | <1000 |
| N#CCN1CCC[C@H]1c1nc(-c2ccc(C(=O)Nc3ccccn3)cc2)c2c(N)nccn12 [Example 94, (S)-4-(8-amino-3-(1-(cyanomethyl)pyrrolidin-2-yl)imidazo[1,5-a]pyrazin-1-yl)-N-(pyridin-2-yl)benzamide] | <1000 |
| Nc1nccn2c([C@@H]3CCCN3C(=O)/C=C/c3ccccc3)nc(-c3ccc(C(=O)Nc4ccccn4)cc3)c12 [Example 104, (S,E)-4-(8-amino-3-(1-cinnamoylpyrrolidin-2-yl)imidazo[1,5-a]pyrazin-1-yl)-N-(pyridin-2-yl)benzamide] | <1000 |

Biological target: Lck enzyme (Homo sapiens (Human), UniProt P06239)
Experiment: Lck enzyme activity, IMAP fluorescence polarization assay
Details: 60 min pre-incubation, 6 μM ATP, bin bound in μM

Chain of Lck enzyme (P06239 whole entry): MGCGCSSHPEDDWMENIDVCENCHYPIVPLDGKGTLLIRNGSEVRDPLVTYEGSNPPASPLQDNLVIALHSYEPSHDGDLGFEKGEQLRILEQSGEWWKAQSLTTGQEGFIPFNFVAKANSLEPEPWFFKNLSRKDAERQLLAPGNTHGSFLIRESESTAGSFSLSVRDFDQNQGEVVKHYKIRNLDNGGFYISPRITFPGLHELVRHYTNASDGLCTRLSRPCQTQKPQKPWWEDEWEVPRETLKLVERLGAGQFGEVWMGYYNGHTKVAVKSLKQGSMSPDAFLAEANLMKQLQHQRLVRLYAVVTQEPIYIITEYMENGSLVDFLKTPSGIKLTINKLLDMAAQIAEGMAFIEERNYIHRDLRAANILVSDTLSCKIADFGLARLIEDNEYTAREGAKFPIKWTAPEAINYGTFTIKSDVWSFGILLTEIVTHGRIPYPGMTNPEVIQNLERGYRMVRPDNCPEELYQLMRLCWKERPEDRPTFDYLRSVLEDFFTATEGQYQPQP

| Compound | EC50 Lck activity values [µM] |
| --- | --- |
| C=CC(=O)N1CCC[C@H]1c1nc(-c2ccc(C(=O)Nc3cc(C(F)(F)F)ccn3)cc2)c2c(N)nccn12 [Example 62, (S)-4-(3-(1-acryloylpyrrolidin-2-yl)-8-aminoimidazo[1,5-a]pyrazin-1-yl)-N-(4-(trifluoromethyl)pyridin-2-yl)benzamide] | <1 |
| CC#CC(=O)N1CCCC[C@H]1c1nc(-c2ccc(C(=O)Nc3cc(CCC)ccn3)cc2)c2c(N)nccn12 [Example 64, (S)-4-(8-amino-3-(1-but-2-ynoylpiperidin-2-yl)imidazo[1,5-a]pyrazin-1-yl)-N-(4-propylpyridin-2-yl)benzamide] | <1 |
| CCCc1ccnc(NC(=O)c2ccc(-c3nc([C@H](C)N(C)C(=O)/C=C/CN(C)C)n4ccnc(N)c34)cc2)c1 [Example 76, (S,E)-4-(8-amino-3-(1-(4-(dimethylamino)-N-methylbut-2-enamido)ethyl)imidazo[1,5-a]pyrazin-1-yl)-N-(4-propylpyridin-2-yl)benzamide] | <1 |
| Nc1nccn2c([C@@H]3CCCN3C(=O)/C=C/c3ccccc3)nc(-c3ccc(C(=O)Nc4ccccn4)cc3)c12 [Example 104, (S,E)-4-(8-amino-3-(1-cinnamoylpyrrolidin-2-yl)imidazo[1,5-a]pyrazin-1-yl)-N-(pyridin-2-yl)benzamide] | <1 |
| C=CC(=O)N1CCC[C@H]1c1nc(-c2ccc(C(=O)Nc3cc(C#N)ccn3)cc2)c2c(N)nccn12 [Example 122, (S)-4-(3-(1-acryloylpyrrolidin-2-yl)-8-aminoimidazo[1,5-a]pyrazin-1-yl)-N-(4-cyanopyridin-2-yl)benzamide] | <1 |
| CC#CC(=O)N1CCC[C@H]1c1nc(-c2ccc(C(=O)Nc3cc(-c4ccccc4)ccn3)cc2)c2c(N)nccn12 [Example 132, (S)-4-(8-amino-3-(1-but-2-ynoylpyrrolidin-2-yl)imidazo[1,5-a]pyrazin-1-yl)-N-(4-phenylpyridin-2-yl)benzamide] | <1 |
